{"source": "patent EP4461287A1", "about": "“SKIN CARE COSMETIC COMPOSITION” (Creaciones Aromáticas Industriales, S.A., priority 2023, dated 2024)", "key": {"[1]": {"test_system": "chromaffin cells", "assay": "Inhibition of Ca2+-induced catecholamine ([3H]noradrenaline) release in digitonin-permeabilized chromaffin cells", "format": "cell-based, bovine", "procedure": "Chromaffin cell cultures were prepared from bovine adrenal glands by collagenase digestion and then separated from debris and erythrocytes by centrifugation. Briefly, the cells were maintained in monolayer cultures and used between the third and sixth day after plating. All the experiments were carried out at 37°C. Secreted neurotransmitter [^3H]noradrenaline was determined in cells permeabilized with digitonin. Neurotransmitter (catecholamines) release was stimulated by addition of 10 µM) Ca^2+.\nTo evaluate the enhancement of this activity of encapsulated Acetylhexapeptide-8, the inhibitory capacity on Ca^2+-induced catecholamine release was measured in digitonin-permeabilized chromaffin cells culture.\nIn particular, the activity of the free peptide free (acetylhexapeptide-8), the peptide encapsulated in Policaprolactone-Chitosan (Acetylhexapeptide-8@PCL-Chi) and the peptide encapsulated with sodium hyaluronate (HA) in PCL-Chi-HA (Acetylhexapeptide-8-HA@PCL-Chi-HA) (present invention) were compared."}, "[2]": {"test_system": "women with facial wrinkles", "assay": "Clinical anti-wrinkle study, preorbital area, 3D skin topography / confocal microscopy of silicone impressions", "format": "in vivo", "conditions": "O/W emulsion twice a day; for Wrinkles reduction (%) 4 wrinkles: at 4 weeks", "procedure": "The clinical study was conducted on 40 women with facial wrinkles between 50 and 60 years of age. All volunteers were healthy and without any systemic or skin disease.\nWrinkles were measured using a topographic skin measurement device, a Bio 3D Structure Light Scanner technology, which performs a 3D reconstruction of the image in silicone (ANTERA 3D® and software (Miravex, Ireland).\nThe patients were divided into two groups, which applied the assigned O/W emulsions twice a day for two months. One group (1) applied a free Acetylhexapeptide-8 emulsion on one side of the preorbital area and an emulsion with Acetylhexapeptide-8 encapsulated in PCL and chitosan on the other side. The second group applied an O/W emulsion with free HA on one area of a preorbital area and another of the cosmetic composition of the present invention (Acetylhexapeptide-8, HA, PCL and chitosan) on the contralateral side. All participants were asked not to use any cosmetics containing ingredients that could interfere with the wrinkle status of the skin during the study period, nor were they subjected to exposure to direct sunlight.\nBefore the first application, at 4 and 8 weeks of use, silicone impressions were taken and processed by confocal laser scanning microscopy to evaluate the progress of wrinkles. The maximum depth values within the analysis area were taken as representative values of wrinkles, and the percentage reduction of these values before and after application were calculated as the percentage improvement of skin wrinkles.\nIn this study, measurements of the main roughness parameters such as mean roughness volume and area affected by roughness were obtained. The average roughness volume is the average (three-dimensional) dimension of the depression of the cutaneous microrelief measured in mm^3. The area affected by roughness is the roughness portion of the measured skin area (two-dimensional, measured in mm^2). The improvement was calculated as the percentage change between the images taken before the treatments and two months […].\nReflection mode confocal microscopy and three-dimensional analysis were used to evaluate the different parameters.\nFor this purpose, the 40 female volunteers were divided into two groups, and each group applied twice daily for 2 months two assigned emulsions, one to each eye in the same preorbital area. Before treatment, at 4 and 8 weeks, the decrease in wrinkles was quantified by 3D images analyzed by confocal microscopy."}, "[3]": {"assay": "Moisturizing efficacy: transepidermal water loss (TEWL) study by corneometry on forearms of volunteers", "format": "in vivo", "conditions": "forearm, women 45-50 years", "procedure": "The transpidermal water loss (TEWL) study by corneometry was performed to compare the moisturizing activity of the composition of the present invention and its main components.\nThe assay was carried out on 20 women between the ages 45 and 50 years. None of the patients had suffered or had any medical history or relevant skin pathologies.\nThe volunteers were divided into four groups. Daily, for 7 days, the assigned sample was applied to one of the forearms of each group (group 1 sample with free sodium hyaluronate, group 2 sample with free Acetylhexapeptide-8, group 3 sample with free sodium hyaluronate and Acetylhexapeptide-8 and group 4 sample with complete encapsulation (Acetylhexapeptide-8, sodium hyaluronate, polycaprolactone and chitosan). The opposite forearm of each volunteer was the control.\nMeasurements were taken 2 hours and 7 days after the first application. Epidermal capacitance was evaluated using a CM 825 Corneometer, which allows quantification of surface humidity variations. Measurements were taken in an air-conditioned room (temperature 23°C, relative humidity 34.5%). […]\nThis trial compared the moisturizing capacity of free HA, free Acetylhexapeptide-8, free HA+Acetylhexapeptide-8 and the composition of the present invention (Acetylhexapeptide-8-HA@PCL-Chi-HA) by measuring the skin loss of water on the forearm of the volunteers analyzed. […]"}, "[4]": {"assay": "Cutaneous penetration by Franz cell diffusion, HPLC quantification in the receptor solution", "format": "in vitro ADME", "conditions": "20 h, pig skin, 32°C, receptor PBS pH 7.4, 25 µl applied", "procedure": "Cutaneous penetration of free acetylhexapeptide-8 and encapsulated acetylhexapeptide-8 (nanocapsule of the present invention) was determined by means Franz cells diffusion. The pig skin samples were used to carry out the experiment, cut into circles 2.5 cm in diameter. The skin was assembled on the receptor compartment of a Franz diffusion cell system with the stratum corneum facing up towards the donor compartment. As a solution for the receptor, 18 ml of phosphate buffered saline (PBS) pH 7.4 stirred by a magnetic rod at 700 rpm were utilized. A 25 µl aliquot of each of the assay formulations was applied on the pig skin. The Franz diffusion cells were kept at 32°C, and after 20 h of incubation, the receptor solution was analyzed by HPLC (I=220 nm) to quantify the amount of acetylhexapeptide-8 was penetrated the skin. Triplicates of the assay were done.\nHPLC analysis was performed utilizing a Waters 996 instrument with diode array detector equipped with Waters 2695 separations module and Millenium software; a C18 4.6x150 mm 5 µm reversed phase column by Waters was used. […]\nThe quantification of acetylhexapeptide-8 in the fluid (PBS) of the receptor chamber was evaluated through HPLC at 20 hours after application of 25 µL of the two solutions on the pig skin."}}}
{"substance": "Acetylhexapeptide-8 [Free Acetylhexapeptide-8]", "values": [{"measurement": "decrease in total catecholamine exocytosis / inhibition of the release of neurotransmitters", "setting": "[1]; Ca2+-induced release, versus control", "result": 20, "unit": "%"}, {"measurement": "Cathecolamine release (%)", "setting": "[1]; stimulated with 10 µM Ca2+, 37°C, control = 100", "result": 80, "unit": "%"}, {"measurement": "Wrinkles reduction (%) 4 wrinkles", "setting": "[2]", "result": 20.5, "unit": "%"}, {"measurement": "Wrinkles reduction (%) 4 wrinkles", "setting": "[2]; listed as free Acetylhexapeptide-8", "result": 20, "unit": "%"}, {"measurement": "Wrinkles reduction (%) 8 wrinkles", "setting": "[2]; at 8 weeks (end of treatment)", "result": 30, "unit": "%"}, {"measurement": "Decrease area affected by roughness (%)", "setting": "[2]; at 8 weeks", "result": 31.2, "unit": "%"}, {"measurement": "Roughness volume decrease (%)", "setting": "[2]; at 8 weeks", "result": 35, "unit": "%"}, {"measurement": "Tewl After 2 hours", "setting": "[3]; 2 hours after first application, control 16", "result": 15.8, "unit": "g/m^2h"}, {"measurement": "Tewl After 7 days", "setting": "[3]; after 7 days of daily application, control 17", "result": 16.5, "unit": "g/m^2h"}, {"measurement": "% Penetration", "setting": "[4]", "result": 14, "unit": "%"}]}
